We go through three compounds from patent publication EP3034610A1, “NOVEL TERPENOID COMPOUND AND METHOD FOR PRODUCING SAME” (The Kitasato Institute, priority 2013, dated 2015).

Holding throughout (type): cell-based
Common to all, as to conditions: 72 h treatment, OD 540 nm, tested 5-100 µg/mL

Assay [1] relates to Mycobacterium smegmatis. The experiment in a line: Cytotoxicity, MTT assay (viability), Mycobacterium smegmatis. A general note: Tetrazolium assays rely on reduction of a dye to a coloured formazan, in cell work by metabolically active cells.
Assay [2] relates to SKOV (ovarian cancer). The experiment in a line: Cytotoxicity, MTT assay (viability), SKOV.
Assay [3] has as its system Jurkat (T-cell lymphoblastic leukemia). The experiment in a line: Cytotoxicity, MTT assay (viability), Jurkat.

For the compound `C=C(CCC=C(C)C)[C@@H]1CC[C@@]2(C)CCCC(C)=C2C1` [clavulatriene A], the IC50 entry in assay [1] is “not active”; in assay [2], “not active”; in assay [3], “IC50 = 5.63 µg/ml”.
tetramethylhexadecahydropyrenol: the IC50 result in assay [1] is listed as “IC50 = 49.78 µg/ml”; in assay [2], “IC50 = 35.38 µ g/ml”; in assay [3], “IC50 = 29. 35 µ g/ml µg/ml”.
For the compound trimethyl-methylenehexadecahydropyrene, the IC50 entry in assay [1] is on record as “IC50 = 50.08 µg/ml”; in assay [2] it was “not active”; in assay [3], “not active”.
